Target: T1, NO synthase (Rattus norvegicus, UniProt P29476)
T1 construct: the supernatant was then removed by decantation and frozen in portions at −80° C; from tissue; host or cells: rat cerebellum, 20,000 g supernatant of homogenate
Test: HTS-NOS assay (NOS assay): conversion of radioactive arginine, cation-exchanger filter plate
Type: biochemical
Details: for inhibition at 10 µM: read-out: HTS-NOS assay: % inhibition (10 μM)
Summary of the method: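 Percent inhibition was derived by comparing remaining radioactive arginine with compound-free controls. Arginine retained on phosphate cation-exchanger filters was counted after citrulline washout, following a 5-60 min room-temperature (25 °C) reaction of labelled arginine, NADPH-containing medium and rat cerebellar homogenate supernatant.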

SMILES	inhibition at 10 µM [%]	HTS-NOS assay: % inhibition (10 μM) [%]
Cc1ccc(-c2nc3cc(C)ccn3c2NC(C)(C)CC(C)(C)C)cc1 [Example 71, (7-Methyl-2-p-tolyl-imidazo[1,2-a]pyridin-3-yl)-(1,1,3,3-tetramethyl-butyl)-amine]	58	–
Cc1cc(C)n2c(NC(C)(C)CC(C)(C)C)c(-c3ccccc3C)nc2c1 [Example 38, (5,7-Dimethyl-2-o-tolyl-imidazo[1,2-a]-pyridin-3-yl)-(1,1,3,3-tetramethyl-butyl)-amine]	60	–
Cc1cc(C)n2c(NC3CCCCC3)c(C)nc2c1 [Example 35, Cyclohexyl-(2,5,7-trimethyl-imidazo[1,2-a]-pyridin-3-yl)-amine]	55	–
COC(=O)CN(C(C)=O)c1c(C)nc2cc(C)ccn12 [Example 174, [acetyl-(2,7-dimethyl-imidazo[1,2-a]pyridin-3-yl)-amino]-acetic acid methyl ester]	68	–
C#[N+]CCCCCCNc1c(-c2ccccc2C)nc2cc(C)cc(C)n12 [Example 106, [6-(5,7-Dimethyl-2-o-tolyl-imidazo[1,2-a]-pyridin-3-ylamino)-hexyl]-methylidyne-ammonium]	–	60
CC(=O)N(c1c(C)cccc1C)c1c(-c2ccccc2F)nc2cc(C)cc(C)n12 [Example 182, N-(2,6-dimethyl-phenyl)-N-[2-(2-fluoro-phenyl)-5,7-dimethyl-imidazo[1,2-a]-pyridin-3-yl]-acetamide]	53	–
CC(=O)N(c1c(-c2ccc(C)o2)nc2ccccn12)C(C)(C)CC(C)(C)C [Example 200, N-[2-(5-methyl-furan-2-yl)-imidazo[1,2-a]pyridin-3-yl]-N-(1,1,3,3-tetramethylbutyl)-acetamide]	58	–
CCCCNc1c(C2CCCCC2)nc2cc(C)ccn12 [Example 30, Butyl-(2-cyclohexyl-7-methyl-imidazo[1,2-a]pyridin-3-yl)-amine]	56	–
CC(=O)N(c1c(-c2c(F)cccc2Cl)nc2c(C)cc(Br)cn12)C1CCCCC1 [Example 253, N-[6-bromo-2-(2-chloro-6-fluoro-phenyl)-8-methyl-imidazo[1,2-a]pyridin-3-yl]-N-cyclohexyl-acetamide]	51	–
CCCCN(C(C)=O)c1c(-c2cccc(OC)c2OC)nc2cc(C)cc(C)n12 [Example 171, N-butyl-N-[2-(2,3-dimethoxy-phenyl)-5,7-dimethyl-imidazo[1,2-a]pyridin-3-yl]-acetamide]	63	–
CC(=O)N(c1c(-c2cccc3ccccc23)nc2cc(C)ccn12)C(C)(C)C [Example 204, N-tert-butyl-N-(7-methyl-2-naphthalen-1-yl-imidazo[1,2-a]pyridin-3-yl)-acetamide]	54	–
CC(=O)N(c1c(C)cccc1C)c1c(-c2cccc(O)c2)nc2cc(C)cc(C)n12 [Example 211, N-(2,6-dimethyl-phenyl)-N-[2-(3-hydroxy-phenyl)-5,7-dimethyl-imidazo[1,2-a]-pyridin-3-yl]-acetamide]	73	–
COc1cccc(-c2nc3c(C)cccn3c2NC(C)(C)CC(C)(C)C)c1OC [Example 117, [2-(2,3-Dimethoxy-phenyl)-8-methyl-imidazo[1,2-a]pyridin-3-yl]-(1,1,3,3-tetramethyl-butyl)-amine]	52	–
CC(=O)N(c1c(C)nc2cc(C)cc(C)n12)C(C)(C)C [Example 152, N-tert-butyl-N-(2,5,7-trimethyl-imidazo[1,2-a]pyridin-3-yl)-acetamide]	66	–
CC(=O)N(c1c(-c2ccc(Cl)s2)nc2ncccn12)C(C)(C)CC(C)(C)C [Example 256, N-[2-(5-chloro-thiophen-2-yl)-imidazo[1,2-a]pyrimidin-3-yl]-N-(1,1,3,3-tetramethyl-butyl)-acetamide]	55	–
CC(=O)N(c1c(-c2ccc(C(=O)O)o2)nc2cc(C)ccn12)C(C)(C)CC(C)(C)C [Example 186, 5-{3-[acetyl-(1,1,3,3-tetramethyl-butyl)-amino]-7-methyl-imidazo[1,2-a]pyridin-2-yl}-furan-2-carboxylic acid]	65	–
COC(=O)CN(C(C)=O)c1c(-c2ccccc2C)nc2cnccn12 [Example 276, [acetyl-(2-o-tolyl-imidazo[1,2-a]pyrazin-3-yl)-amino]-acetic acid methyl ester]	50	–
[C-]#[N+]CCCCCCN(C(C)=O)c1c(-c2ccco2)nc2cc(C)cc(C)n12 [Example 159, {6-[acetyl-(2-furan-2-yl-5,7-dimethyl-imidazo[1,2-a]pyridin-3-yl)-amino]-hexyl}-methylidyne-ammonium]	–	61
Cc1ccn2c(NC3CCCCC3)c(-c3ccccc3C)nc2c1 [Example 10, Cyclohexyl-(7-methyl-2-o-tolyl-imidazol[1,2-a]pyridin-3-yl)-amine]	–	54
Cc1ccn2c(NC(C)(C)CC(C)(C)C)c(-c3ccc(C(=O)O)o3)nc2c1 [Example 81, 5-[7-Methyl-3-(1,1,3,3-tetramethyl-butylamino)-imidazo[1,2-a]pyridin-2-yl]-furan-2-carboxylic acid]	60	–
CC(=O)N(c1c(C)cccc1C)c1c(-c2cc3ccccc3o2)nc2cc(C)cc(C)n12 [Example 189, N-(2-benzofuran-2-yl-5,7-dimethyl-imidazo[1,2-a]pyridin-3-yl)-N-(2,6-dimethylphenyl)-acetamide]	63	–
Cc1ccn2c(NC3CCCCC3)c(-c3cccc4ccccc34)nc2c1 [Example 16, Cyclohexyl-(7-methyl-2-naphthalen-1-yl-imidazo[1,2-a]pyridin-3-yl)-amine]	56	–
CC(=O)N(c1c(-c2ccc(C)o2)nc2cc(C)cc(C)n12)C1CCCCC1 [Example 170, N-cyclohexyl-N-[5,7-dimethyl-2-(5-methyl-furan-2-yl)-imidazo[1,2-a]pyridin-3-yl]-acetamide]	65	–
CCCCNc1c(-c2ccccc2OC)nc2cc(C)ccn12 [Example 60, Butyl-[2-(2-methoxy-phenyl)-7-methyl-imidazo[1,2-a]pyridin-3-yl]-amine]	52	–
CC(=O)N(c1c(-c2cccnc2)nc2cc(C)ccn12)C1CCCCC1 [Example 187, N-cyclohexyl-N-(7-methyl-2-pyridin-3-yl-imidazo[1,2-a]pyridin-3-yl)-acetamide]	67	–
Cc1cccn2c(NC(C)(C)CC(C)(C)C)c(C3CCCCC3)nc12 [Example 139, (2-Cyclohexyl-8-methyl-imidazo[1,2-a]-pyridin-3-yl)-(1,1,3,3-tetramethyl-butyl)-amine]	51	–
CC(=O)N(c1c(-c2ccc(Br)o2)nc2c(C)cccn12)C(C)(C)CC(C)(C)C [Example 271, N-[2-(5-bromo-furan-2-yl)-8-methyl-imidazo[1,2-a]pyridin-3-yl]-N-(1,1,3,3-tetramethyl-butyl)-acetamide]	51	–
COc1ccccc1-c1nc2cc(C)cc(C)n2c1Nc1c(C)cccc1C [Example 79, (2,6-Dimethyl-phenyl)-[2-(2-methoxy-phenyl)-5,7-dimethyl-imidazo[1,2-a]pyridin-3-yl]-amine]	66	–
O=[N+]([O-])c1cccc2cn[nH]c12 [7-nitroindazole, reference compound]	50	–
